Measured values: US12599602B2, “Methods for treating cholestasis” (Mirum Pharmaceuticals, Inc., priority 2019, dated 2026)
Where “and” joins values, the source holds several entries; their conditions need not be identical. Equal entries are not always repeated. Where two headings read alike, the source gives them in different places.

Key:
[1] = tested on: Children with Progressive Familial Intrahepatic Cholestasis; assay: INDIGO phase 2 open-label efficacy and safety clinical study of maralixibat in PFIC; format: in vivo, human; conditions: for 7αC4:sBA ratio: high-dose responder
[2] = tested on: Participants with Primary Sclerosing Cholangitis (PSC); assay: CAMEO 14-week single-arm open-label phase 2a study of maralixibat in PSC; format: in vivo, human
Experimental: Participants were adults aged 18-80 years with a diagnosis of PSC. PSC diagnosis included a documented history of alkaline phosphatase (ALP) levels greater than 1.5 times above the upper limit of normal, biliary obstruction, and histological findings consistent with PSC diagnosis (if previously biopsied). The study enrolled 27 adults.
Efficacy was assessed by measuring at baseline and throughout the study sBA concentration, serum 7αC4 concentration (a marker of de novo bile acid synthesis), serum aoutotaxin concentration, LDL-C concentration, serum total cholesterol concentration, serum liver enzyme concentrations, and pruritus severity. Pruritus severity was determined by calculating Adult Itch Reported Outcome (ITCHRO) weekly sum scores and average daily scores (mean score over a 7-day period). Participants self-reported the ITCHRO daily on a scale 0-10 (0=no pruritus; 10=most severe pruritus).
Outcomes were assessed in the overall study population and in subgroups of participants (A) with any pruritus at baseline or (B) with an ITCHRO average daily score ≥4 out of 10 at baseline. Efficacy endpoints were based on change from baseline to week 14 or early termination (ET) and were analyzed using paired t-tests or Wilcoxon signed rank tests.

[3] = tested on: Children with Alagille Syndrome
Experimental: Children aged 1-18 years with a diagnosis of ALGS and evidence of cholestasis were eligible to enroll in the ICONIC clinical study, see Tables 12-14. During a long-term extension, participants with sBA levels above the upper limit of normal and/or an ITCHRO(OBS) score >1.5 were eligible for the 400 μg/kg BID dose (all participants received the 400 μg/kg BID dose). Inclusion criteria for the ICONIC study included having cholestasis, which was defined as at least one of 1) sBA concentration (total sBA) >3× the upper limit of normal, 2) serum conjugated bilirubin concentration >1 mg/dL, 3) fat-soluble vitamin deficiency not otherwise explained, 4) serum gamma-glutamyl transferase concentration >3× the upper limit of normal, and 3) intractable pruritus explainable only by liver disease. Inclusion criteria also included having significant pruritus, which was defined as an average daily score of >2 on the ITCHRO(OBS) scale for 2 consecutive weeks (0=no pruritus; 4=most severe pruritus). Exclusion criteria included having surgically disrupted enterohepatic circulation, a liver transplant, decompensated cirrhosis, or having any liver disease other than ALGS.
sBA responders were defined as those patients achieving ≥50% reduction from baseline in sBA at week 12 or 18. ITCHRO responders were defined as those patients achieving at least a 1-point reduction from Baseline in weekly morning ITCHRO(OBS) score at week 12 or 18.
In the open label extension, the effect of higher doses was explored by increasing dosage to a maximum of 400 μg/kg BID in eligible participants.
Efficacy assessments were based on changes from baseline in sBA concentration, weekly average ITCHRO(OBS) scores (0, none; 4, most severe), CSS score (0, none; 4 most severe), and Clinician Xanthoma Scale score (0, none; 4, disabling). […] During the long-term extension, efficacy assessments were conducted every 12 weeks. Serum total cholesterol and serum 7αC4 concentration were also monitored during the ICONIC clinical study, among other measures.
sBA were measured using a fully validated liquid chromatography-electrospray ionization-mass electrospray (LC-ESI-MS) method using stable-isotope dilution analysis to measure serum concentrations of principal bile acids (cholic, chenodeoxycholic, ursodeoxycholic, deoxycholic acid, lithocholic, and their corresponding glycine and taurine conjugates). Serum samples were analyzed in the Division of Pathology and Laboratory Medicine, Cincinnati Children's Hospital Medical Center according to SOP #PATH.CMS.1033. Calibration standards of individual bile acids were in the range of 50-25,000 ng/mL and Quality Control samples were prepared at concentrations of 100, 500, 1000, 2500, and 20000 ng/mL. The intra- and inter-assay imprecision of the method for individual bile acids measured was within the accepted GLP quality assurance guidelines of <15% coefficient of variance for these QC samples. The lower limit of quantification of the assay was set at 100 ng/mL and the imprecision at this concentration was <20%. The limit of detection of the assay was 5 ng/mL. Total sBA is represented by the sum of the individual bile acid species measured.

[4] = participants with ITCHRO daily score ≥4 at baseline, one line per Participant A-F
[5] = participants with an ITCHRO daily score ≥4 at baseline

## maralixibat
[1]; all PFIC 1 patients and all patients harboring a truncating ABCB11 mutation
  multi-parameter response: not multi-parameter responders
[1]; all low-dose responders, e.g. within 2-6 months of first administration
  serum ALT, AST, and bilirubin concentrations over time: normalized or only mildly elevated concentrations
[1]; all low-dose responders, within 13 weeks of first administration
  increase in C4 levels relative to baseline: at least 2.5 fold
[1]; high dose responder, following treatment response on sBA
  height Z-score: increase in height Z-score
[1]; prior to administration of 560 μg/kg/day
  7αC4:sBA ratio: 12 times baseline
[1]; upon administration of the higher dose (560 μg/kg/day)
  7αC4:sBA ratio: 1770 times baseline
[1]; low-dose responder losing response in long-term extension, 280 μg/kg BID from between 640 and 730 days
  cholestasis markers after administration of the higher dose: sBA concentration decreased, severity of pruritus decreased, serum 7αC4 concentration increased, and 7αC4:sBA ratio increased
[1]; low-dose responder with sBA increase in long-term extension, 280 μg/kg BID from between 820 and 910 days
  pruritus after administration of the higher dose: severity of pruritus subsequently decreased
[1]; low-dose responders
  7αC4 concentrations at 48 weeks: 14 × baseline
  growth (height Z-score change relative to baseline): improved growth relative to baseline
  mean change from baseline at week 48 in 7αC4:sBA ratio: 1388 times baseline ratio
[1]; mild PFIC 2 patients, 280 μg/kg QD
  multi-parameter responder: 1 of 7
[1]; moderate PFIC 2 patients, 280 μg/kg/day by week 48
  responders: 5 of 12
[1]; moderate PFIC 2 patients, responsive only after 280 μg/kg twice daily
  high-dose responder: 1 of 12
[1]; non-responders
  7αC4 concentrations at 48 weeks: 1.8 × baseline
  growth (height Z-score change relative to baseline): did not
  mean change from baseline at week 48 in 7αC4:sBA ratio: 1.9 times baseline ratio
[1]; non-truncating BSEP mutations
  patients with ≥1.0 pt. reduction in ITCHRO(OBS) score: 10/19
[1]; responders
  duration of maintained response: for over a year and for up to or beyond 5 years
[1]; responders (n = 6) by week 48
  ItchRO score, n: Improved by ≥1.0 points from baseline: 4
  ItchRO score, n: Zero (no pruritus): 2
  sBA levels, n: Normalized (±≤8.5 μmol/L): 4
  sBA levels, n: Reduced by ≥70% or ≥80% from baseline: 2
[1]; three non-truncating PFIC 2 patients without response at 280 μg/kg/day given 560 μg/kg/day
  patients responding at the higher dose: one
[1]; week 48
  ALT, change from baseline to week 48, mean: −12 UI/L
  C4, change from baseline to week 48, mean: +6.0 ng/mL
  ItchRO(Obs) score, change from baseline to week 48, mean: −1.0
  PedsQL total score, change from baseline to week 48, mean: +8.2
  Total bilirubin, change from baseline to week 48, mean: +0.8 mg/dL
  sBA, change from baseline to week 48, mean: -32 µmol/L
[2]; adults with PSC, up to 10 mg/day
  tolerability: well tolerated
[2]; baseline to week 14
  participants with worsening of pruritus by >1 point: No participants
[2]; overall
  7αC4, mean increase from baseline: 11.1 ng/mL
  Mean levels of 7αC4, increase from baseline: 130%
  sBA levels, decrease from baseline: 38%
  sBA levels, mean change from baseline: -14.8 µmol/L
[2]; overall population
  Mean conjugated bilirubin levels, increase: 0.19 mg/dL
  serum LCL-C concentration, change: -16.3 mg/dL
  serum autotaxin concentration, change: -148 ng/mL
  total cholesterol, mean change: -21.2 mg/dL
[2]; overall, baseline to week 14/ET
  ITCHRO weekly sum scores, decrease from baseline: 51%
[2]; participants in the CAMEO clinical study
  Changes in serum total bilirubin, alanine aminotransferase, aspartate aminotransferase, and alkaline phosphatase concentrations: not statistically significant
[2]; participants with ITCHRO daily score ≥0 at baseline
  conjugated bilirubin levels, change: no significant change
[2]; [4]
  ItchRO average daily score (0-10 scale), Change from baseline to week 14/ET: −4.7 and −4.6 and −1.7 and −3.7 (2×) and −9.1
  ItchRO average daily score (0-10 scale), Week 14/ET: 0 (2×) and 1.3 and 5.1 and 3.1 and 2.3
[2]; participants with an ITCHRO daily score >4 at baseline
  autotaxin levels: significant reductions
[2]; participants with an ITCHRO daily score >4 out of 10 at baseline (n=6)
  ITCHRO weekly sum scores, decrease from baseline: 70%
[2]; [5]
  Mean levels of 7αC4, increase from baseline: 107%
  sBA levels, decrease from baseline: 45%
  total cholesterol, mean change: -32.0 mg/dL
[2]; participants with an ITCHRO score ≥4 at baseline
  participants in whom pruritus improved: all 6
[2]; participants with any pruritus at baseline (n=18)
  ITCHRO weekly sum scores, decrease from baseline: 53%
[3]; 400 μg/kg QD then 400 μg/kg BID
  weight Z-scores: dose-dependent increase in weight Z-scores
[3]; ITCHRO(OBS) weekly morning average score, one line per Subject ID (Table 18)
  Change in ItchRO from Baseline to Week 48: 0.49 and −0.45 and 1.29 and −3.86 and 0.00 and −2.57 and −1.86 (2×) and −1.71 (2×) and −1.00 (2×) and −1.29 and −1.67 and −1.14 and −1.03 and −3.29 (2×) and −3.43 and −2.50 and −2.71 (2×) and −3.50 and −2.29 and −0.17 and −1.43 and −0.83 and −0.12
[3]; Normalization (<8.5 μmol/L)
  sBA response, Week 48 (N = 28) n (%): 1 (3.6%)
[3]; Open-label Week 18
  ItchRO (Obs) responders, Decrease from baseline ≥1: 67.7%
  ItchRO (Obs) responders, Decrease from baseline ≥1.25: 58.1%
  ItchRO (Obs) responders, Decrease from baseline ≥1.5: 51.6%
[3]; Open-label Week 48
  ItchRO (Obs) responders, Decrease from baseline ≥1: 72.4%
